Source: ChEMBL document CHEMBL4417627, “Dab2 inhibitors for the prevention and treatment of cystic fibrosis” (2017)

Assays:
Type in all cases: cell-based
[1] = Toxicity in human CFBE cells assessed as reduction in cell viability at 5 to 100 uM incubated for 12 hrs by MTT assay
[2] = Toxicity in human CFBE cells assessed as reduction in cell viability at 100 uM incubated for 3 hrs by LDH assay relative to control 1% triton
[3] = Toxicity in human CFBE cells assessed as reduction in cell viability at 5 to 100 uM incubated for 3 hrs by MTT assay
[4] = Toxicity in human CFBE cells assessed as reduction in cell viability incubated for 3 hrs by LDH assay
[5] = Toxicity in human CFBE cells assessed as reduction in cell viability incubated for 12 hrs by LDH assay
[6] = Toxicity in human CFBE cells assessed as reduction in cell viability at 40 uM incubated for 24 hrs by LDH assay relative to control 1% triton

Structure (SMILES) | Activity [1] | Activity [2] | Activity [3] | Activity [4] | Activity [5] | Activity [6]
CC1(C)Cc2ccccc2-c2n[nH]c(=S)n21 | Non-Toxic | <= 10% | Non-Toxic | Non-Toxic | Toxic | 
C[C@]12CC[C@@H]3c4cc(O)c(O)cc4CC[C@H]3[C@@H]1CC[C@@H]2O | Non-Toxic |  | Non-Toxic | Dose-dependent effect | Dose-dependent effect | 20 to 40%
CN1CCc2cccc3c2[C@@H]1Cc1ccc(O)c(O)c1-3.Cl | Non-Toxic |  | Non-Toxic | Dose-dependent effect | Dose-dependent effect | 
